B1: phosphotransferase protein IIA^Glc of E. coli (natural protein, UniProt P69783 1-169, looked up)
chain: MGLFDKLKSLVSDDKKDTGTIEIIAPLSGEIVNIEDVPDVVFAEKIVGDGIAIKPTGNKMVAPVDGTIGKIFETNHAFSIESDSGVELFVHFGIDTVELKGEGFKRIAEEGQRVKVGDTVIEFDLPLLEEKAKSTLTPVVISNMDEIKELIKLSGSVTVGETPVIRIKK

Key:
MelBSt [1] = biological target: T1, MelBSt (Salmonella enterica, UniProt P30878); test: isothermal titration calorimetry; type: binding; details: purified in 0.01% MNG-3, 20 mM Tris-HCl pH 7.5, 100 mM NaCl, 10% glycerol, 25 °C
MelBSt [2] = biological target: T1, MelBSt; test: Trp→D^2G FRET, displacement of bound D^2G; type: binding; details: read-out: RSO membrane vesicles, 10 μM D^2G, 20 mM NaCl, KPi pH 7.5
MelBEc [3] = biological target: T2, MelBEc (Escherichia coli, UniProt P02921); test: isothermal titration calorimetry; type: binding; details: purified in 0.01% MNG-3, 20 mM Tris-HCl pH 7.5, 100 mM NaCl, 10% glycerol, 25 °C
T2 sequence (P02921 2-473): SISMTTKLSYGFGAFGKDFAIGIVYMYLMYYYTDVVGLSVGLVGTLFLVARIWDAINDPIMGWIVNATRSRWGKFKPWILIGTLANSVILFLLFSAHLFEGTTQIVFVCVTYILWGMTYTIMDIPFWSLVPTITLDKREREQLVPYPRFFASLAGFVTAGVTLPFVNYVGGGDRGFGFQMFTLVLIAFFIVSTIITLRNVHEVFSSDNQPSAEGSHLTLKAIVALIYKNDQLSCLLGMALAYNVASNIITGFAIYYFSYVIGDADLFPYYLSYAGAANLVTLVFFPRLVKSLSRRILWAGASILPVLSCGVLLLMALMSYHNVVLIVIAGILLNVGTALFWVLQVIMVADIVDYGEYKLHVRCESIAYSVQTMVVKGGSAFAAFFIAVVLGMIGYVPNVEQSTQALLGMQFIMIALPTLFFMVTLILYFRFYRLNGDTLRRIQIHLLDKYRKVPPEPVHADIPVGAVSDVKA

MelBSt [4] = biological target: MelBSt (Salmonella enterica, UniProt P30878, R295C); details: RSO vesicles solubilized with MNG-3, 10 μM D^2G, 20 mM NaCl
MelBEc [5] = biological target: T2, MelBEc; test: Trp→D^2G FRET, displacement of bound D^2G; type: binding; details: read-out: RSO membrane vesicles, 10 μM D^2G, 20 mM NaCl, KPi pH 7.5
[6] = biological target: R141C mutant of the melibiose permease of Salmonella typhimurium (R141C MelBSt) (Salmonella typhimurium, UniProt P30878 1-476, R141C); test: ITC
[7] = biological target: WT melibiose permease of Escherichia coli (MelBEc) (Escherichia coli, UniProt P02921 1-473); test: ITC

Molecule | Kd (MelBSt [1]) [µM] | IC50 (MelBSt [2]) [µM] | Kd (MelBEc [3]) [µM] | IC50 (MelBSt [4]) [µM] | IC50 (MelBEc [5]) [µM] | Kd [6] [µM] | binding result [7]
OC[C@H]1O[C@H](OC[C@H]2OC(O)[C@H](O)[C@@H](O)[C@@H]2O)[C@H](O)[C@@H](O)[C@H]1O (stereo partly shown) [melibiose] | 2510 ± 130 | 2420 ± 220 | 1280 ± 60 | 5490 ± 830 | 660 ± 160 | – | –
B1 | – | – | – | – | – | 2 | binds
